# T1: Pol IV (E. coli DNA polymerase IV, DinB) (Escherichia coli, UniProt Q47155)
# T1 construct: full-length, untagged as far as told, pET11a plasmid pRM112 (T7 promoter) and mutant derivatives, purified from E. coli; 351 residues
# T1 sequence (Q47155 1-351): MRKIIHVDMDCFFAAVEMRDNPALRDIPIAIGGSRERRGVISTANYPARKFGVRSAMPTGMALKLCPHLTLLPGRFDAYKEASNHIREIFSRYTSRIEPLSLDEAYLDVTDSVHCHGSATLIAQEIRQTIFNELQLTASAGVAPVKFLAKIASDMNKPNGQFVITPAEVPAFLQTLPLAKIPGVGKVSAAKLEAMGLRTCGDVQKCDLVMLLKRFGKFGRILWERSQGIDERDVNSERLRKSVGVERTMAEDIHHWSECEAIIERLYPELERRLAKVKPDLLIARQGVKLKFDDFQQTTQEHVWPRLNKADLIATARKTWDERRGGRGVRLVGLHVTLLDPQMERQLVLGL
# Columns and labels:
# [1] = biological target: T2, Pol IV (E. coli DNA polymerase IV, DinB) (Escherichia coli, UniProt Q47155, T120P); experiment: pre-steady-state single-nucleotide primer extension, […] gel assay; format: biochemical; conditions: apparent Kd for dNTP, kpol given as kcat, 200 nM DNA, 400 nM polymerase, 10 mM MgCl2, pH 7.5, 25°C
# T2 construct: full-length, untagged as far as told, pET11a plasmid pRM112 (T7 promoter) and mutant derivatives, purified from E. coli; 351 residues
# T2 sequence (Q47155 whole entry T120P): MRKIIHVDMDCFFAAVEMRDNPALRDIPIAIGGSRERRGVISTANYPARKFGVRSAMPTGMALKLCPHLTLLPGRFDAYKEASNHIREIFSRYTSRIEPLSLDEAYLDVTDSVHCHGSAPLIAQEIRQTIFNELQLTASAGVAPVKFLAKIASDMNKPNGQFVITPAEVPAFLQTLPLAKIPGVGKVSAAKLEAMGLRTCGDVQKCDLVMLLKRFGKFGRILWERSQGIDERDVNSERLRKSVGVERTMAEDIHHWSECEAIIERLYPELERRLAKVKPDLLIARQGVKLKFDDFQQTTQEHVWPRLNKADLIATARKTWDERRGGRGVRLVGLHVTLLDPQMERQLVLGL
# [2] = biological target: T1, Pol IV (E. coli DNA polymerase IV, DinB); experiment: as above; format: biochemical; conditions: apparent Kd for dNTP, kpol given as kcat, 200 nM DNA, 400 nM polymerase, 10 mM MgCl2, pH 7.5, 25°C
# [3] = biological target: Pol III core complex (Pol IIIαεθ) (E. coli) (UniProt P10443)
# [4] = undamaged template 13/20G (opposite dG)
# [5] = undamaged template 13/20A (opposite dA)
molecule,measurement,setting,value
Nc1ncnc2c1ncn2[C@H]1C[C@H](O)[C@@H](COP(=O)(O)OP(=O)(O)OP(=O)(O)O)O1 [dATP],Kd,"[1]; template 13/20Sp (opposite abasic site), above highest dNTP tested (500 μM range)",460 ± 230 µM
Nc1ccn([C@H]2C[C@H](O)[C@@H](COP(=O)(O)OP(=O)(O)OP(=O)(O)O)O2)c(=O)n1 [dCTP],Kd,[1]; [4],14 ± 3.3 µM
same,Kd,[2]; [4],> 300 µM
Cc1cn([C@H]2C[C@H](O)[C@@H](COP(=O)(O)OP(=O)(O)OP(=O)(O)O)O2)c(=O)[nH]c1=O [dTTP],Kd,[1]; [5],39 ± 9 µM
same,Kd,[2]; [5],207 ± 21 µM
Pol IV catalytic domain (Pol IV^CD; residues 1–230) (domain or fragment) MRKIIHVDMDCFFAAVEMRDNPALRDIPIAIGGSRERRGVISTANYPARKFGVRSAMPTGMALKLCPHLTLLPGRFDAYKEASNHIREIFSRYTSRIEPLSLDEAYLDVTDSVHCHGSATLIAQEIRQTIFNELQLTASAGVAPVKFLAKIASDMNKPNGQFVITPAEVPAFLQTLPLAKIPGVGKVSAAKLEAMGLRTCGDVQKCDLVMLLKRFGKFGRILWERSQGID,"Pol III processivity in the single-molecule primer extension assay; 900 nM Pol IV^CD (180-fold molar excess) with 5 nM Pol IIIαεθ, β clamp and τ3δδ'ψχ clamp loader (of the processivity without Pol IV^CD)",[3],0.5

# Reference: paper PMC4564189, “A Genetic Selection for dinB Mutants Reveals an Interaction between DNA Polymerase IV and the Replicative Polymerase That Is Required for Translesion Synthesis” (PLoS Genetics, 2015)
